Test results as given in publication PMC5048153 (Scientific Reports, 2016).

Tests used:
[1] = tested on: corticosterone-injured PC12 cells; assay: Protective effects on corticosterone-injured PC12 cells (MTT); assay type: cell-based, rat; parameters: key to PR (protection rate), Table S1: compounds did not shown protection effects on corticosterone-injured PC12 cells; conditions: 1.25µM, 24 h after treatment
Procedure: PC12 cells were purchased from American Type Culture Collection and were maintained in DMEM medium supplemented with penicillin (100 unit/ml), streptomycin (100 μg/ml), 5% fetal bovine serum (FBS), and 10% horse serum at 37 °C in humidified atmosphere with 5% CO2. The detailed procedures were performed referring to the reported literatures. Briefly, PC12 cells of logarithmic growth phase were collected, re-suspended and then seeded at a density of 1 × 10^5 cells per well in 96-well plates and cultured in the DMEM medium with 5% horse serum, 10% FBSfor 24 h.
After incubation with compounds, 20 μl of 5 mg/ml MTT solution was added to each well and cultured at 37 °C for 2 h–4 h. Then, the culture medium was removed, and 150 μl dimethyl sulfoxide(DMSO) was added to each well for 15 min at room temperature. The absorbance of each well was measured at 570 nm using a microplate reader. The protective rates (PR) were calculated according to equation (1).

HEK293 cells = assay: Cytotoxicity on HEK293 cells (MTT); assay type: cell-based, human; conditions: after treatment; for inhibition at 100 µM: Homo sapiens, HEK293, 100μM, read-out: IR (inhibitory rate) HEK293
Procedure: (§1) Human normal hepatic L02 cells, human embryonic kidney cell line 293 cells (HEK293) and Rattus myoblast cell line H9C2 cells were respectively seeded in 96-well plates at a density of 4 × 10^3 cells per well and cultured in the 1640 or DMEM medium, with the supplement of 10% fetal bovine serum, penicillin (100 unit/ml), streptomycin (100 μg/ml) in a humidified incubator with 5% CO2 for 24 h. […] The cytotoxicities of the compounds were evaluated by MTT method.

L02 cells = assay: Cytotoxicity on L02 cells (MTT); assay type: cell-based, human; conditions: after treatment; for inhibition at 100 µM: Homo sapiens, L02, 100μM, read-out: IR (inhibitory rate) L02
Procedure: as §1

H9C2 cells = assay: Cytotoxicity on H9C2 cells (MTT); assay type: cell-based; conditions: Rattus norvegicus, 48 h
Procedure: Human normal hepatic L02 cells, human embryonic kidney cell line 293 cells (HEK293) and Rattus myoblast cell line H9C2 cells were respectively seeded in 96-well plates at a density of 4 × 10^3 cells per well and cultured in the 1640 or DMEM medium, with the supplement of 10% fetal bovine serum, penicillin (100 unit/ml), streptomycin (100 μg/ml) in a humidified incubator with 5% CO2 for 24 h. After adherence, L02, HEK293 and H9C2 cells were exposed to different compounds for another 48 h. The cytotoxicities of the compounds were evaluated by MTT method.

SD rats [2] = assay: Open field locomotor activity; assay type: in vivo, rat; conditions: ig. 32 mg/kg/day, days 2–15, vs untreated rats
Procedure: The detailed procedures were performed according to our previous studies. In brief, each SD rat was placed at the center of the open field (50 × 50 cm^2 chamber, 50-cm-high walls, with a 25 cm^2 area in the middle of floor defined as the central square) for 6 min in a quiet room. The animals were gently placed in the center of the platform and were allowed to explore the surroundings. A camera was installed above the center of the field. Immediately after a rat was placed at the center in the open field, the movements and position of the animals were recorded and registered automatically by computerized system. Next test was performed after cleaning the chamber. The traveled tracks of rats were recorded for 6 minutes and the videos of the last 4 minutes were analyzed also by Xeye Animal behavior analysis system.

SD rats [3] = assay: Forced swim test; assay type: in vivo, rat; conditions: ig. 32 mg/kg/day, days 2–15
Procedure: The detailed procedures were performed according to our previous studies. Briefly, each SD rat was placed in a vertical Plexiglas cylinder (height 50 cm; diameter 20 cm) containing 18 cm height of water at 25 ± 2 °C and was forced to swim individually for 15 min on1st day. From 2nd day to 15th day, the rats were intragastrically administered compound 6a-1 or control drugs at dosage of 32 mg/kg/day. On the 2nd day and 15th day, 30 minutes after drug treatment, each rat was placed again into water and forced to swim for 6 min. The rat behavior was recorded by a video camera placed directly facing cylinders. The duration of immobility during the last 4 minutes was analyzed by Xeye Animal behavior analysis system (Xeye Aba V3.2). The rat was considered as immobile when its moving speed was less than 20 mm/s. The dosage of is 32 mg/kg every day. The water in the cylinder was changed each trial. After each exposure, animals were partially dried with a towel and returned to their home cages. All tests were performed in a quiet room.

[4] = tested on: corticosterone-injured PC12 cells; assay: Intracellular calcium ion concentration analysis (Fura-2 AM); assay type: cell-based, rat; conditions: 200 µM corticosterone and 5 µM drug
Procedure: The detailed procedures were performed according to the reported literatures. In brief, calcium ion concentration was measured by Fura-2 AM (Thermo Scientific). PC12 cells were treated with compound 6a-1 for 48 hours. Then cells were detached with 0.25% trypsin and centrifuged at 1000 r/min for 5 minutes. The supernatant was removed and the cells were stained with Fura-2 AM according to the manufacturer’s instructions. Fluorescence intensity of labeled cells was photographed for 25 random sights each group using Thermo Scientific Array Scan Infinity.

[5] = tested on: corticosterone injured PC12 cells; assay: Real-time PCR BDNF mRNA level; assay type: cell-based, rat; conditions: 200 µM corticosterone and 5 µM drug
5-HT2C receptor = biological target: T1, 5-HT2C receptor (Homo sapiens, UniProt P28335); assay: FLIPR assay for 5-HT2C antagonism; assay type: cell-based
T1 sequence (P28335 33-458): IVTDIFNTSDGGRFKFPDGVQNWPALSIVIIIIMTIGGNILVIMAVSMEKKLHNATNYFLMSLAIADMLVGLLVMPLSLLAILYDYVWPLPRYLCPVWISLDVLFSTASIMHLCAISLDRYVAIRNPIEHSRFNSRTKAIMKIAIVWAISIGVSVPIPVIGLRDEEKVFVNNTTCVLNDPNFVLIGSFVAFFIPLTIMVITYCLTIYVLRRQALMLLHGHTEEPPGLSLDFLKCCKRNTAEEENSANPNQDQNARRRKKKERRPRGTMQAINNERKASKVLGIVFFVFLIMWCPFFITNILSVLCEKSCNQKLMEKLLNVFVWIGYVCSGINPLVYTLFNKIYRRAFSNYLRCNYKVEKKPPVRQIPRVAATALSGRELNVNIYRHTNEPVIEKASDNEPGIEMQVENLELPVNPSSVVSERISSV
Procedure: Seed cells at the density of 10 K cell/well, 37 °C, 5% CO2 incubate for 16–24 hours, then loading cells with 30 ul of Calcium 5 and 37 °C, 5% CO2 incubate for 1 hour. After transfer compound to compound plate with 30 ul Assay Buffer by Echo, add 15 ul/well of compound, incubate for 10 mins.

[6] = PAMPA-BBB literature value ref 38; cited from earlier work

Compound	PR (protection rate), Table S1 [1]	inhibition at 100 µM (HEK293 cells) [%]	inhibition at 100 µM (L02 cells) [%]	Pe, Lit. [6]	other results
COc1ccc2c(c1)C(CCNC(=O)Nc1ccc(CC#N)cc1)=NCC2.O=C(O)C(=O)O [6b-20, 1-(4-(Cyanomethyl)phenyl)-3-(2-(7-methoxy-3,4-dihydroisoquinolin-1-yl)ethyl)urea oxalate]	-	47.8	52		
COc1ccc2c(c1)C(CCNC(=O)Nc1ccc(Br)cc1)=NCC2 [6b-21, 1-(4-Bromophenyl)-3-(2-(7-methoxy-3,4-dihydroisoquinolin-1-yl)ethyl)ureaoxalate]	-	41.2	38.3		
COc1ccc2c(c1)C(CCNC(=O)Nc1ncccc1Br)=NCC2.O=C(O)C(=O)O [6b-22, 1-(3-Bromopyridin-2-yl)-3-(2-(7-methoxy-3,4-dihydroisoquinolin-1-yl)ethyl)urea oxalate]	-	46.4	48.5		
COc1cccc2c1C(=O)c1c(O)c3c(c(O)c1C2=O)C[C@@](O)(C(=O)CO)C[C@@H]3O[C@H]1C[C@H](N)[C@H](O)[C@H](C)O1 [Adriamycin]					IC50 (H9C2 cells): 160 ± 20 nM
CNCCC(Oc1ccc(C(F)(F)F)cc1)c1ccccc1 (stereo not shown) [Fluoxetine]					improved travelled distance (SD rats [2]): 69.8%; mean immobility time reduced compared to the model group (SD rats [3]): 50.7%; fluorescence intensity of free intracellular calcium ion [4]: weaker fluorescence intensity than corticosterone-injured PC12 cells; BDNF mRNA level increase compared with corticosterone-injured group [5]: 32.1%
CC[C@@H](CO)NC(=O)[C@@H]1C=C2c3cccc4c3c(cn4C)C[C@H]2N(C)C1 [Methysergide]					IC50 (5-HT2C receptor): 25 nM; inhibition at 100 µM (5-HT2C receptor; read-out: Inhibition 5-HT2C): 101%
O=C1Nc2ccc(Cl)cc2C(c2ccccc2)=NC1O (stereo not shown) [Oxazepam]				10 *10^−6 cm/s	
CN1C(C(=O)Nc2ccccn2)=C(O)c2ccccc2S1(=O)=O [Piroxicam]				2.5 *10^−6 cm/s	
Cn1c(=O)c2[nH]cnc2n(C)c1=O [Theophylline]				0.12 *10^−6 cm/s	
N-(2-(7-Methoxy-3,4-dihydroisoquinolin-1-yl)ethyl)-4-methylbenzamide oxalate [6a-32]	-				IR (inhibitory rate) HEK293 (HEK293 cells; 100μM): 54.8%; IR (inhibitory rate) L02 (L02 cells; 100μM): 43.2%
